Data as given in PubChem BioAssay (NCI).
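Results reflect a 48-hour exposure of cells in 96-well plates to compound at five concentrations. TGI denotes the concentration required for complete inhibition of growth.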

These compounds were tested on U251 CNS (assay: DTP human tumour cell line panel, 48 h).
`CS(=O)(=O)Nc1ccc(N2Cc3cnc4ccc5[nH]ccc2c5c34)cc1` gave a TGI of 36.5 µM. `CC(C)(C)C(=O)OCC1CCC[N+]2(C)CCCCC12` (stereo not drawn) gave a TGI of over 100 µM. `CCn1c(-c2cc(OC)cc(OC)c2)nc2c1C(=O)c1ccccc1C2=O` gave a TGI of over 100 µM. Compound `CN1C(=O)N/C(=C\c2ccc(S(=O)(=O)NN)cc2)C1=O` has a TGI of over 100 µM. Work on `Cc1cc(N(CCC#N)CCC#N)ccc1/C(N=Nc1ccc([N+](=O)[O-])cc1)=N\NC(=O)c1cc(Cl)ccc1C(=O)c1ccccc1` yielded a TGI of over 100 µM. `O=C1N=c2ccccc2=C1c1c(O)[nH]c2ccccc12` gave a TGI of 24.1 µM. With `CCCCCCCCCCCCCCCCCCNc1ccn(C2OC(COP(=O)(O)OCC3OC(n4cc(C)c(=O)[nH]c4=O)CC3O)C(O)C2O)c(=O)n1` (stereo not drawn) the TGI was 34.9 µM. Work on `CC(=O)OCc1cc(CCC(=O)NCCNc2c3ccccc3nc3ccccc23)cc(COC(C)=O)c1O[Si](C)(C)C(C)(C)C` yielded a TGI of 19.7 µM. Compound `NC(N)=NCCN=C(N)N` has a TGI of over 100 µM. Compound `CC[N+](CC)(CCNCC(N)=O)CC(N)=O` has a TGI of over 10 µM. `COc1ccc(N=C2SC(=N/N=c3\sc4ccccc4n3C)SC2=Nc2ccc(OC)cc2)cc1` showed a TGI of over 100 µM. Compound `CCOC(=O)C1=CC(C)(C(=O)OCC)Nc2c(nc(OC)n(C)c2=O)N1` (stereo not drawn) has a TGI of over 10 µM. With `Cc1ccc(/C=N/n2c(=O)[nH]c3ccccc3c2=O)cc1` the TGI was over 100 µM. With `S=C(c1c[nH]c2ccccc12)N1CCOCC1` the TGI was over 100 µM. Compound `Cc1nc2ccccc2c(=O)n1NC(=O)c1ccc(CS)cc1` has a TGI of 23.3 µM. Work on `CNc1ccc(OC)cc1S(=O)(=O)c1ccccc1[N+](=O)[O-]` yielded a TGI of over 100 µM. `O=[N+]([O-])c1ccc(/C=N/n2c(CO)nc3ccccc32)o1` showed a TGI of 37.2 µM.

Each compound was assayed on NCI-H23 lung (assay: DTP human tumour cell line panel, 48 h).
For `CC1CC(N)=Nc2ccccc2N1` (stereo not drawn), the TGI was over 100 µM. Compound `CC(=O)Nc1cc(C(=O)Nc2cc(C(=O)N3CC(CCl)c4c3cc(N)c3ccccc43)nn2C)nn1C` (stereo not drawn) has a TGI of 0.0678 µM. Work on `CC(C)(Cc1ccccc1)NC1=NCCO1` yielded a TGI of over 100 µM. Work on `O=C(O)c1n[nH]nc1Cl` yielded a TGI of over 100 µM. Work on `CN(c1ccc(Cl)cc1)S(=O)(=O)c1cccc([N+](=O)[O-])c1` yielded a TGI of over 100 µM. With `NC(Cc1cccc([N+](=O)[O-])c1)C(=O)O` (stereo not drawn) the TGI was over 100 µM. `Clc1c(Cl)c(Cl)c2nn(C3CCCO3)nc2c1Cl` (stereo not drawn) was tested, and the TGI was over 100 µM. With `CN(c1ccc(Cl)cc1)S(=O)(=O)c1ccc([N+](=O)[O-])cc1` the TGI was over 100 µM. With `CS(=O)(=O)Nc1ccc(N2Cc3cnc4ccc5[nH]ccc2c5c34)cc1` the TGI was 76.9 µM. For `CC(C)(C)C(=O)OCC1CCC[N+]2(C)CCCCC12` (stereo not drawn), the TGI was over 100 µM. `CCn1c(-c2cc(OC)cc(OC)c2)nc2c1C(=O)c1ccccc1C2=O` gave a TGI of over 100 µM. `CN1C(=O)N/C(=C\c2ccc(S(=O)(=O)NN)cc2)C1=O` gave a TGI of over 100 µM. Work on `Cc1cc(N(CCC#N)CCC#N)ccc1/C(N=Nc1ccc([N+](=O)[O-])cc1)=N\NC(=O)c1cc(Cl)ccc1C(=O)c1ccccc1` yielded a TGI of 38.6 µM. Compound `O=C1N=c2ccccc2=C1c1c(O)[nH]c2ccccc12` has a TGI of 69.2 µM. Compound `CCCCCCCCCCCCCCCCCCNc1ccn(C2OC(COP(=O)(O)OCC3OC(n4cc(C)c(=O)[nH]c4=O)CC3O)C(O)C2O)c(=O)n1` (stereo not drawn) has a TGI of 31 µM. Compound `CC(=O)OCc1cc(CCC(=O)NCCNc2c3ccccc3nc3ccccc23)cc(COC(C)=O)c1O[Si](C)(C)C(C)(C)C` has a TGI of 34.7 µM. `NC(N)=NCCN=C(N)N` gave a TGI of over 100 µM. `CC[N+](CC)(CCNCC(N)=O)CC(N)=O` gave a TGI of over 10 µM. Compound `COc1ccc(N=C2SC(=N/N=c3\sc4ccccc4n3C)SC2=Nc2ccc(OC)cc2)cc1` has a TGI of over 100 µM. In the case of `CCOC(=O)C1=CC(C)(C(=O)OCC)Nc2c(nc(OC)n(C)c2=O)N1` (stereo not drawn), the TGI is reported as over 10 µM. Work on `Cc1ccc(/C=N/n2c(=O)[nH]c3ccccc3c2=O)cc1` yielded a TGI of over 100 µM. `S=C(c1c[nH]c2ccccc12)N1CCOCC1` was tested, and the TGI was over 100 µM. `Cc1nc2ccccc2c(=O)n1NC(=O)c1ccc(CS)cc1` was tested, and the TGI was 52.1 µM. `CNc1ccc(OC)cc1S(=O)(=O)c1ccccc1[N+](=O)[O-]` showed a TGI of over 100 µM. `O=[N+]([O-])c1ccc(/C=N/n2c(CO)nc3ccccc32)o1` was tested, and the TGI was 20 µM.

What follows are compounds tested on MDA-MB-231 breast (assay: DTP human tumour cell line panel, 48 h).
Work on `CC1CC(N)=Nc2ccccc2N1` (stereo not drawn) yielded a TGI of over 100 µM. For `CC(=O)Nc1cc(C(=O)Nc2cc(C(=O)N3CC(CCl)c4c3cc(N)c3ccccc43)nn2C)nn1C` (stereo not drawn), the TGI was 0.76 µM. Work on `CC(C)(Cc1ccccc1)NC1=NCCO1` yielded a TGI of over 100 µM. In the case of `O=C(O)c1n[nH]nc1Cl`, the TGI is reported as over 100 µM. `CN(c1ccc(Cl)cc1)S(=O)(=O)c1cccc([N+](=O)[O-])c1` showed a TGI of over 100 µM. `NC(Cc1cccc([N+](=O)[O-])c1)C(=O)O` (stereo not drawn) was tested, and the TGI was over 100 µM. With `Clc1c(Cl)c(Cl)c2nn(C3CCCO3)nc2c1Cl` (stereo not drawn) the TGI was over 100 µM. `CN(c1ccc(Cl)cc1)S(=O)(=O)c1ccc([N+](=O)[O-])cc1` showed a TGI of over 100 µM. Compound `CS(=O)(=O)Nc1ccc(N2Cc3cnc4ccc5[nH]ccc2c5c34)cc1` has a TGI of 37.5 µM. `CC(C)(C)C(=O)OCC1CCC[N+]2(C)CCCCC12` (stereo not drawn) gave a TGI of over 100 µM. `CCn1c(-c2cc(OC)cc(OC)c2)nc2c1C(=O)c1ccccc1C2=O` was tested, and the TGI was over 100 µM. `CN1C(=O)N/C(=C\c2ccc(S(=O)(=O)NN)cc2)C1=O` showed a TGI of over 100 µM. `Cc1cc(N(CCC#N)CCC#N)ccc1/C(N=Nc1ccc([N+](=O)[O-])cc1)=N\NC(=O)c1cc(Cl)ccc1C(=O)c1ccccc1` gave a TGI of 91 µM. Compound `O=C1N=c2ccccc2=C1c1c(O)[nH]c2ccccc12` has a TGI of over 100 µM. `CCCCCCCCCCCCCCCCCCNc1ccn(C2OC(COP(=O)(O)OCC3OC(n4cc(C)c(=O)[nH]c4=O)CC3O)C(O)C2O)c(=O)n1` (stereo not drawn) was tested, and the TGI was 31.1 µM. With `CC(=O)OCc1cc(CCC(=O)NCCNc2c3ccccc3nc3ccccc23)cc(COC(C)=O)c1O[Si](C)(C)C(C)(C)C` the TGI was 11.6 µM.
